Test results: US12721846B2, “Methods for treating behavioral and psychological symptoms in patients with dementia” (SUVEN LIFE SCIENCES LIMITED, priority 2019, dated 2026)
Entries after “also recorded” stand apart in the source; their conditions may differ.

Key:
[1] = 30 mg daily dose; patients with AD; cited from earlier work
[2] = test system: Swiss albino mice (aggression, duration of attack); assay: Resident-intruder task; assay type: in vivo, mouse; conditions: masupirdine 0.30 mg/kg p.o. 60 min prior; donepezil or memantine 0.30 mg/kg i.p. 30 min prior; 10 min exposure
Experimental: Male Swiss albino mice of weight range 30-40 g (Resident) and 15-25 g (Intruder) were used. Resident mice were habituated individually with an ovariectomized female mouse in each cage for at least 2 weeks and intruders were habituated socially for at least 5 days. β-Estradiol at a dose of 0.2 mg/kg, s.c. was administered to ovariectomized female mice during habituation. After habituation for 3 weeks, the intruder was exposed to resident mice for a period of 10 min in the home cage of resident animal and duration of attack was recorded for two days (day 1 & 2). During this 10 min exposure period, ovariectomized female mice were removed from resident cage, resident animals were randomized based on their duration of attack. On day 4 (from initial exposure), resident animals were administered respective treatments. […] After post dose interval resident mice were exposed to same intruder for 10 min and duration of attack was recorded. Data were analyzed using GraphPad Prism software.

[3] = test system: DOI induced head twitch response (model of hallucination); assay: DOI induced head twitch response; assay type: in vivo, rat; conditions: 1 mg/kg, p.o.; DOI 5 mg/kg s.c.; 10 min
Experimental: DOI induced head twitch response is considered to be a behavioral model of hallucination (Pharmacol Rep. 2012; 64(6):1567-72). Male Wistar rats of 200-290 g were weighed and randomized according to their body weights. On day 1, rats were first habituated to the arena for 15 min. […] 15 min before the trial, rats were subjected to habituation and immediately following the habituation, DOI, 5 mg/kg s.c was administered. The rats were then placed in the arena and head twitches were recorded for 10 min. Data were analyzed using GraphPad Prism software.

[4] = test system: norepinephrine and dopamine levels in prefrontal cortex; assay: Microdialysis: modulation of norepinephrine and dopamine levels in cortex; assay type: in vivo, rat; conditions: male Wistar rats, masupirdine 3 mg/kg p.o., donepezil or memantine 1 mg/kg s.c.
From the text: Male Wistar rats (240-300 g body weight) were stereotaxically implanted with a microdialysis guide cannula in prefrontal cortex (PFC; AP: +3.2 mm, ML: −0.5 mm, DV: −1.0 mm) under isoflurane anesthesia. […] The rats were allowed to recover individually for four days in a round bottom Plexiglas bowl with free access to feed and water.
Sixteen hours before start of the study, a pre-equilibrated microdialysis probe (4 mm dialysis membrane) was inserted into PFC through the guide cannula. On the day of study, probe was perfused with artificial cerebrospinal fluid (aCSF; NaCl 150 mmol, KCl 3.0 mmol, MgCl2 0.9 mmol, CaCl2. 2H2O 1.7 mmol, pH 6.2) at a flow rate of 1.5 μL/min and a stabilization period of 2 h was maintained. […] Dialysates were stored below −50° C. prior to analysis.
Norepinephrine and dopamine levels in dialysates were quantified using LC-MS/MS method.
Statistical significance was considered at a p value less than 0.05.

[5] = cited from earlier work

CN(C)CCCC1(c2ccc(F)cc2)OCc2cc(C#N)ccc21 (centres unmarked) [Citalopram]
adverse effects seen in treatment group [1]: Worsening of cognition; also recorded: QT interval prolongation

COc1ccc2c(c1)c(CN1CCN(C)CC1)cn2S(=O)(=O)c1ccccc1Br [masupirdine, 1-[(2-bromophenyl)sulfonyl]-5-methoxy-3-[(4-methyl-1-piperazinyl)methyl]-1H-indole]
duration of attack compared with basal [2]: equal duration of attack
number of head twitches [3]: significantly reduced the number of head twitches

CC12CC3CC(C)(C1)CC(N)(C3)C2 [memantine]
duration of attack compared with basal [2]: decrease in duration of attack when compared with its basal; however it was not statistically significant
cortical dopamine levels, AUC of percent change [4]: 327.75±24.99
cortical norepinephrine levels, AUC of percent change [4]: 371.34±22.45

CC(C)COc1ccc(CNC(=O)N(Cc2ccc(F)cc2)C2CCN(C)CC2)cc1 [Pimavanserin]
effect for agitation ([5]; AD study): no effect
effect on NPI-NH psychosis scale ([5]; week 6): statistically significant effect
